We go through one substance from patent publication US20100285611A1, “PHOTOBLEACHING RESISTANT PH SENSITIVE DYE NANOREACTORS WITH DUAL WAVELENGTH EMISSION” (priority 2009, published 2010).

Data set [1] in a line: Photobleaching under 300 W Xenon lamp. Conditions: after 100 minutes; 300 W Xenon lamp 15 cm away; DI water pH 9; 30° C.; 640 nm. Format: physicochemical. Here is the method:
cSNARF-1 in DI water at pH 9 and the nanoreactors in the same solvent was placed into covered 1 cm-path length quartz cuvettes and kept at 30° C. using a circulating water bath while being continuously exposed to the emission of a 300 W Xenon lamp placed 15 cm away. […] The fluorescence intensity at 640 nm was recorded at 5 or 10 minute intervals.

The conditions of data set [2]: at room temperature; cited from earlier work.
The nature of data set [3]: Stopped flow kinetics of fluorescence response to pH change. In kind it is physicochemical. Here is the method: The time dependent response of cSNARF-1 solution and nanoreactors to the pH change was measured at 20° C. using an RX2000 Stopped-Flow Mixing Accessory (Applied Photophysics Limited, Leatherhead, UK) attached to the Cary Eclipse fluorescence spectrophotometer. The mixing time of this system is reported to be 8 msec, and the response time of Eclipse is 1 msec. To estimate the response time of the nanoreactors, they were first adjusted to pH 10 then mixed with a 50 mM phosphate buffer solution at pH 2. By exciting cSNARF-1 at 514 nm during this process, the pH-responsive fluorescence change at 582 nm was recorded.

The nature of data set [4]: pH dependent fluorescence emission spectra of cSNARF-1 (modified Henderson-Hasselbalch analysis). Format: physicochemical. Here is the method: Absorption spectra were obtained using a UV Mini 1240 spectrophotometer (Shimadzu Scientific Instruments, Columbia, Md.) in a 1-cm path length quartz cuvette. The total concentration of encapsulated cSNARF-1 in the suspensions was determined at pH 7 using the extinction coefficient of 27,000 L-mol-1-cm-1 at the absorbance maximum of 548 nm. Fluorescence spectra were obtained using a Cary Eclipse fluorescence spectrophotometer (Varian, Walnut Creek, Calif.) with excitation wavelength of 514 nm and collecting emissions over the range of 550 nm to 750 nm at room temperature. […] The pH was adjusted using 0.1 N HCl or NaOH, starting from pH 7 to either the higher or lower limit of pH and back. All spectra were corrected for dilution.
A more quantitative analyses of these changes in fluorescence intensity may be carried out using the modified Henderson-Hasselbalch equation. For a dye with dual wavelength emissions, the ratio of fluorescence intensity over a given pH range elucidates the dye's pKa as:
where Ri is the fluorescence intensity ratio of the two wavelengths (582 nm and 635 nm) at pHi, Rmin and Rmax are the minimum and maximum limiting values of Ri, respectively. The value of I(A)/I(B) is obtained from the emission intensities at 635 nm for the limiting acidic, I(A), and basic, I(B), pH regions. In practice, to elucidate the pKa of each sample, first the pH1/2 value, at which (Ri−Rmin)=(Rmax−Ri) or R1/2=(½) (Rmax+Rmin) was determined to make the second term of the right hand side of equation equal to zero. The value of pH1/2 was then subtracted by log(I(A)/I(B)) to estimate the pKa value.
To estimate the pH1/2 and I(A)/I(B) from the experiment, the fluorescence intensity changes at 635 nm and 582 nm, and their ratios were plotted against the pH values as shown in FIG. 4B. For elucidation of both pH1/2 and I(A)/I(B), it is important to note that well defined limiting intensities at both extreme ends of acidic and basic pHs must be available. Furthermore, the spectral changes shown in each of FIG. 4A should have a well defined isoemissive point to assure that the integrity of spectral chromophores is maintained throughout the entire pH range. Once pH1/2, Rmin, Rmax, and I(A)/I(B) are determined, the value for “c” may be estimated from the least squares fit of the equation to the experimental results shown as filled circles in FIG. 4B.

[5] abbreviates: solvent Water, excitation 514 nm.

Where two headings read alike, the source gives them in different places.

Usually pKa stands for the negative logarithm of the acid dissociation constant. In the case of “5-(and-6)-Carboxy-seminaphthorhodafluor-1 [cSNARF-1]”, the “loss of fluorescence intensity” value in data set [1] was 30%. Besides, the pKa in data set [2] is 7.5; in data set [4] (solvent 1.5% IgG sln) it was 7.72; in data set [4] (solvent Water), 7.46. Moreover, in data set [3] (pH change from pH 10 to 5, average of three traces (FIG. 7 legend)), the “time for change in fluorescence intensity (67%)” value came out at 175 ms. Besides, the “time for 65% change in fluorescence intensity (t65%)” value in data set [3] (response to pH change, average of three traces, 20° C., excitation 514 nm, emission 582 nm) worked out at 175 ms. Also, the Acidic peak in data set [4] (solvent 1.5% IgG sln) is 584 nm; in data set [4] (setting [5]) it was 581 nm. Besides, the Basic peak in data set [4] (solvent 1.5% IgG sln) and in data set [4] (setting [5]) was 633 nm in each case. Besides, the c is reported as −0.78 in data set [4] (solvent 1.5% IgG sln) and −1.17 in data set [4] (solvent Water, least squares fit of Equation 1). For the same substance, the “log{I[A]/I[B]}” value is recorded as −0.47 in data set [4] (solvent 1.5% IgG sln); −0.31 in data set [4] (solvent Water, emission intensities at 635 nm, limiting acidic and basic pH). Also, the “pH 1/2” value was 7.25 in data set [4] (solvent 1.5% IgG sln) and 7.15 in data set [4] (solvent Water, excitation 514 nm, room temperature).
